Experimental data: patent US20260234178A1, “PYRANOSIDE COMPOUNDS AND METHODS” (JAMES COOK UNIVERSITY, priority 2022, published 2026)

What was measured:
Type in all cases: cell-based
IFN-γ [1] = experiment: Cytokine suppression assay, P/I-stimulated PBMC: IFN-γ release; settings: 10 μg/mL; P/I-stimulated human PBMC; 20 h treatment; relative to stimulated control
From the text: (§1) PBMCs from four healthy donors were isolated from buffy coats using Lymphoprep™ density gradient medium ([sequence] Technologies, Vancouver, Canada), according to the manufacturer's instructions. Isolated cells were cryopreserved in 90% heat-inactivated foetal calf serum (FCS) (Bovogen Biologicals) with 10% dimethyl sulfoxide (DMSO; Sigma-Aldrich, St. Louis, MO, USA) using vapour phase nitrogen until required. On the day of the experiment, PBMCs were thawed and removed from the freezing medium by washing with 9 mL pre-warmed culture medium and centrifugation at 300×g for 5 min. An R10 culture medium of RPMI-1640 media without L-glutamine (Gibco Thermo Fisher Scientific, Waltham, MA, USA), supplemented with 10% heat-inactivated foetal bovine serum (FBS; Bovogen Biologicals, Christchurch, New Zealand), 10,000 units/mL of penicillin+10,000 μg/mL of streptomycin (Thermo Fisher Scientific), and 1× GlutaMAX (Thermo Fisher Scientific) was used for all experiments. […] After incubation, the enzyme was removed by two additional washes with R10. Thawed PBMCs were counted using a CASY cell counter (Roche Innovatis, Germany), and cell densities were adjusted to seed 100,000 cells/well into 96-well plates in a final volume of 100 μL culture medium.
(§2) For our cytokine suppression assays, inflammatory cytokines (IFN-γ, IL-17A, IL-8, and TNF) were induced in two ways. First, the PBMCs from three donors were activated with a cell stimulation cocktail of 50 ng/mL phorbol 12-myristate 13-acetate and 1 μg/mL ionomycin (P/I; eBioscience). P/1-stimulated cells were treated with 10 μg/mL of U. metrosideros compounds, PCE, CsA (Sigma-Aldrich), or remained untreated. Second, the PBMCs from four donors were cultured in the presence of Dynabeads Human T-Activator CD3/CD28 (Gibco) at a cell-to-bead ratio of 1:1. […] On the day of the experiment, cytokine concentrations were determined using a standard LEGENDplex™ human inflammation panel 1 (BioLegend®), LSRFortessa (BD), and LEGENDplex™ software (version 2022-02-10, Qognit, Inc.).

IL-17A [2] = experiment: Cytokine suppression assay, anti-CD3/anti-CD28 (Dynabead)-stimulated PBMC: IL-17A release; settings: 10 μg/mL; anti-CD3/anti-CD28-stimulated human PBMC; 20 h
From the text: as §1, §2

IFN-γ [3] = experiment: Cytokine suppression assay, anti-CD3/anti-CD28 (Dynabead)-stimulated PBMC: IFN-γ release; settings: 10 μg/mL; anti-CD3/anti-CD28-stimulated human PBMC; 20 h
From the text: (§3) PBMCs from four healthy donors were isolated from buffy coats using Lymphoprep™ density gradient medium ([sequence] Technologies, Vancouver, Canada), according to the manufacturer's instructions. Isolated cells were cryopreserved in 90% heat-inactivated foetal calf serum (FCS) (Bovogen Biologicals) with 10% dimethyl sulfoxide (DMSO; Sigma-Aldrich, St. Louis, MO, USA) using vapour phase nitrogen until required. On the day of the experiment, PBMCs were thawed and removed from the freezing medium by washing with 9 mL pre-warmed culture medium and centrifugation at 300×g for 5 min. […] Thawed PBMCs were counted using a CASY cell counter (Roche Innovatis, Germany), and cell densities were adjusted to seed 100,000 cells/well into 96-well plates in a final volume of 100 μL culture medium.
(§4) For our cytokine suppression assays, inflammatory cytokines (IFN-γ, IL-17A, IL-8, and TNF) were induced in two ways. […] On the day of the experiment, cytokine concentrations were determined using a standard LEGENDplex™ human inflammation panel 1 (BioLegend®), LSRFortessa (BD), and LEGENDplex™ software (version 2022-02-10, Qognit, Inc.).

IL-17A [4] = experiment: Cytokine suppression assay, P/I-stimulated PBMC: IL-17A release; settings: 10 μg/mL; P/I-stimulated human PBMC; 20 h treatment; relative to stimulated control
From the text: as §3, §4

IL-8 = experiment: Cytokine suppression assay, anti-CD3/anti-CD28 (Dynabead)-stimulated PBMC: IL-8 release; settings: 10 μg/mL; anti-CD3/anti-CD28-stimulated human PBMC; 20 h
From the text: as §3, §4

Molecule	suppression of IFN-γ secretion (IFN-γ [1]) [%]	suppression of Dynabead-induced IL-17A secretion (IL-17A [2]) [%]	suppression of Dynabead-induced IFN-γ secretion (IFN-γ [3]) [%]	reduction of IL-17A levels (IL-17A [4]) [%]	inhibition of IL-8 release (IL-8) [%]
CC1=CC(=O)CC(C)(C)[C@@]1(O)/C=C/[C@@H](C)O[C@@H]1O[C@H](CO)[C@@H](O)[C@H](O)[C@H]1O [Compound 3, (6S,9R)-roseoside]	64.4	38.2	–	–	–
CC1=CC[C@@H](C(C)(C)O[C@@H]2O[C@H](COC(=O)c3cc(O)c(O)c(O)c3)[C@@H](O)[C@H](O)[C@H]2O)CC1 [Compound 5, (4S)-α-terpineol 8-O-β-D-(6-O-galloyl)glucopyranoside]	79.6	53.7	59.3	60.9	24.3
galloyl-lawsoniaside A [Compound 4]	95.3	80.9	78.5	79.1	40.5
